Reference: patent US20150141375A1 (priority 2009, published 2015)

Experiments:
Mad-4 JCV = assay: JCV (Mad-4) initial infection of SVG cells (in situ DNA hybridization, qPCR)
ADV = assay: Retrospective analysis of EIND patients with AdV disease; assay type: in vivo, human
Experimental: The records of patients who were granted emergency investigational-new-drug approval for CMX001 for treatment of AdV were analyzed retrospectively. Of the 16 patients with AdV disease treated with CMX001, 13 had data available for ≧4 weeks after starting CMX001. Doses of CMX001 ranged from approximately 1 mg/kg once weekly to 4 mg/kg twice weekly. Adenovirus qPCR was performed at VireCor (9 cases), Focus Diagnostics (2) and Molecular Virology Laboratory, University of Washington (2). Disseminated AdV disease was defined by the isolation of the virus from 2 or more sites, including blood. At the end of CMX001 treatment, virologic response (VR) was defined as either ≧99% drop in plasma VL from baseline or undetectable plasma virus. The Wilcoxon signed rank test was used to evaluate whether VL changed from baseline to weeks 1, 2, 4, 6, and 8. Logistic regression models were employed to evaluate possible associations between covariates and VR.

[1] = 3-way crossover bioavailability / food effect study in healthy volunteers; assay type: in vivo, human
Experimental: An open-label, 3-way crossover study in healthy volunteers comparing the bioavailability of CMX001 tablet versus solution formulation and the effect of food on CMX001 pharmacokinetics was completed. 24 healthy volunteers received 40 mg tablets (fed), 40 mg tablets (fasted), and 40 mg as a solution (fasted). […] Exposure as indicated by AUC was unchanged.

JCV (Mad-4) = JCV (Mad-4) replication in COS-7 cells (qPCR, immunofluorescence); assay type: cell-based, JC virus
EBV [2] = assay: In vitro potency against dsDNA viruses: EBV; assay type: cell-based
EBV [3] = assay: Patients with EBV-associated PTLD treated with CMX001; assay type: in vivo, human
Description: The first patient is a patient with a history of sickle cell anemia developed EBV-associated intracranial post-transplant lymphoproliferative disorder (PTLD). EBV was positive in the plasma (7 Dec. and 14 Dec. 2010) and brain biopsies were consistent with PTLD. In early December, the patient presented with a 3 day history of persistent headache, nausea, vomiting, and diarrhea. […] The patient was admitted to PICU. High intracranial pressure, repetitive seizures associated with apnea led to intubtion and emergency request for CMX001. The use of CMX001 in this patient with EBV-associated PTLD is ongoing since 26 Dec. 2009.
The second patient was a heart transplant recipient with EBV-associated PTLD. The patient acquired a primary EBV infection post-operatively. […] The clinical condition continued to destabilize with what was presumed to be EBV-associated encephalitis with EBV detected in the CSF, clinical and EEG-correlated seizure activity and decreased responsiveness and changes in mental status. At the time of request for CMX001, the patient was on mechanical ventilation, had evidence of both pneumonia and PTLD of their lungs, evidence of seizure activity with clinical criteria for encephalopathy being present. The patient received their first dose of CMX001, 20 mg (approximately 3.3 mg/kg) on 3 Mar. 2010, and their second dose on 7 Mar. […] The patient continued to show evidence of progressive neurologic injury. The parents withdrew support on the day following their second dose of CMX001.

RPTECs = assay: RPTEC DNA replication (BrdU), metabolic activity (WST-1), proliferation (xCELLigence); assay type: cell-based, human; details: for reduction of rate of RPTEC proliferation (xCelligence): CMX001 0.31 μM, 48 h postexposure
Experimental: (§1) RPTECs were infected with BKV(Dunlop). CMX001 was added before and 2 h postinfection (hpi). Cells and supernatants were harvested 24-72 hpi. BKV replication was examined by TaqMan assays, western blotting, IF staining and viability of RPTECs was examined by WST-1 assay, BrdU incorporation and a TaqMan assay.
(§2) To use more sensitive assays, host cell DNA replication and metabolic activity using BrdU incorporation and WST-1 assays in uninfected RPTECs were used. Addition of CMX001 reduced both DNA replication (FIG. 2a) and metabolic activity (FIG. 2b) of uninfected RPTECs in a concentration-dependent manner. Compared to untreated RPTECs, CMX001 at 0.08 to 10 μM decreased DNA replication by 15% to 93% and the metabolic activity by 41% to 88%, respectively.
(§3) The mitocondrial metabolic activity was monitored by the colorimetric WST-1 assay (Roche, Rotkreuz, Switzerland) measuring reduction of the Tetrazolium salt, WST-1, by mitochondrial dehydrogenases. DNA synthesis was quantified by colorimetric measurement of BrdU incorporation into DNA using the “Cell proliferation ELISA, BrdU” kit (Roche). The attachment and proliferation of the cells was measured as impedance using E-plates and the xCelligence system (Roche). In order for the RPTECs to attach and proliferate on the E-plates, the plates were first coated with fibronectin. Next the background impedance of the plates was monitored by addition of 100 μl medium to each well, before the plate was connected to the system and checked in the cell culture incubator for proper electrical-contacts. Subsequently, 100 μl cell suspension containing the indicated cell numbers was seeded. To determine the effect of BKV infection and CMX001 treatment, about 24 h after seeding 150 μl of the media was replaced with fresh media with or without purified BKV-Dunlop in the presence or absence of CMX001 (final concentration of 0.31 μM). The cells were grown for 96 h and impedance was measured every 15 minutes for the first 6 h then every 30 minutes. Impedance was expressed as an arbitrary unit called the Cell Index.

[4] = as above; assay type: cell-based, human; details: human; BKV-infected RPTECs; read-out: CC-90 (BrdU incorporation reduced to approximately 10% of untreated infected cells)
Experimental: as §1, §2, §3

In the case of CCCCCCCCCCCCCCCCOCCCOP(=O)(O)CO[C@H](CO)Cn1ccc(N)nc1=O [CMX001, Hexadecyloxypropyl-cidofovir], the “reduction in percentage of JCV DNA containing cells” value (“reduction in percentage” below) (Mad-4 JCV; 0.03 μM, 4 days) is reported as 46%, the “decrease in number of JCV genome copies (qPCR)” value (Mad-4 JCV; 0.07 μM, 4 days) is reported as 57% and the “reduction in percentage” value (Mad-4 JCV; 0.07 μM, 4 days) is reported as 57%. The “maximal suppression of JCV DNA containing cells, normalized to total cell number” value (Mad-4 JCV; 0.1 μM) was 52%, the “reduction in percentage” value (Mad-4 JCV; 0.1 μM, 4 days) was 71% and the EC50 (Mad-4 JCV; JC polyomavirus, read-out: EC50, JCV copy number) was 45 nM. The “patients achieving virologic response (VR)” value (ADV; 8 of 13 patients, VR = ≧99% drop in plasma VL or undetectable) was 61.5%, the safety (ADV; 13 patients) was “No serious adverse events, gastro-intestinal, renal or bone marrow toxicity were reported” and the “Median decrease from baseline, adenovirus viral load” value (shortened to “Median decrease from baseline”) (ADV; Week 1) was 1.43 log10. For the same molecule, the “Median decrease from baseline” value (ADV; Week 2) was 1.71 log10, the “Median decrease from baseline” value (ADV; Week 4) was 1.89 log10 and the “Median decrease from baseline” value (ADV; Week 6) was 2.44 log10. The “Median decrease from baseline” value (ADV; Week 8) was 2.98 log10, the adverse events ([1]; 40 mg) was “no serious adverse events” and the “exposure as indicated by AUC” value ([1]; 40 mg) was “unchanged”. The “reduction of plasma Cmax by a high fat meal” value ([1]; 40 mg tablets) was “approximately 40%”, the “delay of Tmax, tablet versus liquid formulation” value ([1]; 40 mg, fasted) was ~1 h and the “reduction of extracellular JCV loads” value (JCV (Mad-4); 0.6 μM CMX001) was “approximately 90%”. For the same molecule, the “JCV VP1 immunofluorescence” value (JCV (Mad-4); 1.25 μM CMX001, 7 d.p.i.) was “significant reduction of JCV VP1 signal”, the “change in the JCV load over 7 days” value (JCV (Mad-4); 5 μM CMX001) was “less than 1 log” and the “JCV VP1 immunofluorescence” value (JCV (Mad-4); 5 μM CMX001, 7 d.p.i.) was “essentially no VP1 positive cells could be observed”. The “extracellular JCV load” value (JCV (Mad-4); 5 μM CMX001, 7 d.p.i. (day 1: 1.34×10^7; untreated: 5.67×10^10)) was 8.85×10^7 geq/ml, the IC90 (JCV (Mad-4); JC polyomavirus, 120 h, COS-7, 5 d.p.i., viral input subtracted, read-out: IC-90, extracellular JCV load) was 600 nM and the EC50 (JCV (Mad-4); JC polyomavirus, 120 h, COS-7, 5 days) was 150 nM. The “Enhanced Activity” value (EBV [2]; CMX001 versus cidofovir EC50) was >4250, the EC50 (EBV [2]; human gammaherpesvirus 4, Dardi) was 40 nM and the EBV viral load (EBV [3]; heart transplant recipient, 7 Mar. 2010 after first dose 20 mg (3 Mar. 2010: 267,338)) was 47,427 copies/mL. The “EBV in the plasma” value (EBV [3]; patient, 4 mg/kg twice weekly) was “remains negative”, the tolerability (EBV [3]; patient, 4 mg/kg twice weekly) was “tolerated CMX001 well” and the “reduction of rate of RPTEC proliferation (xCelligence)” value (RPTECs; exponentially growing BKV infected cells) was “approximately 35%”. The “reduction of rate of RPTEC proliferation (xCelligence)” value (RPTECs; exponentially growing uninfected cells) was “approximately 25%”, the SI-90 (RPTECs; estimated, RPTECs) was 62.5 and the CC90 [4] was 10000 nM.
